Measured values from patent US20020115640A1, “Farnesyltransferase inhibitors” (priority 2000, published 2002).

Target: T1, farnesyltransferase (Rattus norvegicus, UniProt Q02293+Q04631)
T1 construct: The enzyme can be purified according to Cell, 62: 81-88 (1990), utilizing steps one, two, and three; from tissue; host or cells: rat brain
Assay: Inhibition of farnesyltransferase (3H-farnesyldiphosphate / H-Ras filter assay)
Assay type: biochemical
Conditions: test compound at 10^−7 M; 3H-farnesyldiphosphate 0.6 μM, H-Ras 5.0 μM, 37° C., 30 minutes
Description: The ability of the compounds of the present invention to inhibit farnesyltransferase can be measured according to the method described in J. Biol. Chem., 266: 14603 (1991) or J. Biol. Chem., 270:660-664 (1995). Procedures for determination of the inhibition of farnesylation of the oncogene protein Ras are described in J. Biol. Chem., 266:15575-15578 (1991) and U.S. Pat. No. 5,245,061. Inhibition of rat brain farnesyltransferase can also be measured in vitro using an Amersham Life Science commercial scintillation proximity assay kit and substituting a biotin-K Ras B fragment (0.1 μM final concentration) for the biotin-lamin substrate provided by Amersham. The enzyme can be purified according to Cell, 62: 81-88 (1990), utilizing steps one, two, and three. […] The percent inhibition of the farnesylation caused by the compounds of the present invention (at 10^−6 M) compared to an uninhibited control sample can be evaluated in the same Amersham test system.
The mixture was brought to 37° C., treated with enzyme, incubated for 30 minutes, treated with 1 M HCl/ethanol (1 mL) to stop the reaction, stirred for 15 minutes at room temperature, diluted with ethanol (2 mL), filtered through a 2.5 cm glass microfiber filter (Whatman) with ethanol rinses (4×2 mL). The glass transferred to a scintillation vial and treated with scintillation fluid (5 mL). The radioisotope retained on the glass fiber filter was counted and reflected the activity of the enzyme.

T1 sequence (Q02293 whole entry, one chain of several): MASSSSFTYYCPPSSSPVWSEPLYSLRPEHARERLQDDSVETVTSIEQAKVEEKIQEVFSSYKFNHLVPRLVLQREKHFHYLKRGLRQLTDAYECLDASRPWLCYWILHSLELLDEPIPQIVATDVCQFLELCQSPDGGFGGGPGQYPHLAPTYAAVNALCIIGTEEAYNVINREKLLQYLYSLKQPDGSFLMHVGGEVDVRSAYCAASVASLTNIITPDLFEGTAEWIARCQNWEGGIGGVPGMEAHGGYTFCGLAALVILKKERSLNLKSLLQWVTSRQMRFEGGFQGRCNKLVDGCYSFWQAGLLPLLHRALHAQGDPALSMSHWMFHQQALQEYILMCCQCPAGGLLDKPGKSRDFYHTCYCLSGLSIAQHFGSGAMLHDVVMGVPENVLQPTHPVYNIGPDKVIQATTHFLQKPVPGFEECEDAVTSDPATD

| Molecule | % Inhibition at 10^−7 M [%] | inhibition at 0.1 µM [%] |
| --- | --- | --- |
| 4-(((5-chloro-4′-(trifluoromethyl)(1,1′-biphenyl)-2-yl)methoxy)(1-methyl-1H-imidazol-5-yl)methyl)benzonitrile [Example 26] | 98 | – |
| Cn1cncc1C(OCc1ccc(Cl)cc1I)c1ccc(C#N)cc1 (centres unmarked) [Example 1, 4-(((4-chloro-2-iodobenzyl)oxy)(1-methyl-1H-imidazol-5-yl)methyl)benzonitrile] | – | 73 |
| Cn1cncc1C(OCc1ccc(Cl)cc1-c1ccccc1Cl)c1ccc(C#N)cc1 (centres unmarked) [Example 3, 4-(((2′,5-dichloro(1,1′-biphenyl)-2-yl)methoxy)(1-methyl-1H-imidazol-5-yl)methyl)benzonitrile] | – | 90 |
| Cc1ccccc1-c1cc(Cl)ccc1COC(c1ccc(C#N)cc1)c1cncn1C (centres unmarked) [Example 4, 4-(((5-chloro-2′-methyl(1,1′-biphenyl)-2-yl)methoxy)(1-methyl-1H-imidazol-5-yl)methyl)benzonitrile] | – | 89 |
| COc1ccccc1-c1cc(Cl)ccc1COC(c1ccc(C#N)cc1)c1cncn1C (centres unmarked) [Example 5, 4-(((5-chloro-2′-methoxy(1,1′-biphenyl)-2-yl)methoxy)(1-methyl-1H-imidazol-5-yl)methyl)benzonitrile] | – | 79 |
| Cn1cncc1C(OCc1ccc(Cl)cc1-c1cccc(Cl)c1)c1ccc(C#N)cc1 (centres unmarked) [Example 6, 4-(((3′,5-dichloro(1,1′-biphenyl)-2-yl)methoxy)(1-methyl-1H-imidazol-5-yl)methyl)benzonitrile] | – | > 91 |
| Cc1cccc(-c2cc(Cl)ccc2COC(c2ccc(C#N)cc2)c2cncn2C)c1 (centres unmarked) [Example 7, 4-(((5-chloro-3′-methyl(1,1′-biphenyl)-2-yl)methoxy)(1-methyl-1H-imidazol-5-yl)methyl)benzonitrile] | – | > 85 |
| Cn1cncc1C(OCc1ccc(Cl)cc1-c1cccc(C(F)(F)F)c1)c1ccc(C#N)cc1 (centres unmarked) [Example 8, 4-(((5-chloro-3′-(trifluoromethyl)(1,1′-biphenyl)-2-yl)methoxy)(1-methyl-1H-imidazol-5-yl)methyl)benzonitrile] | – | 96 |
| COc1cccc(-c2cc(Cl)ccc2COC(c2ccc(C#N)cc2)c2cncn2C)c1 (centres unmarked) [Example 9, 4-(((5-chloro-3′-methoxy(1,1′-biphenyl)-2-yl)methoxy)(1-methyl-1H-imidazol-5-yl)methyl)benzonitrile] | – | > 91 |
| Cn1cncc1C(OCc1ccc(Cl)cc1-c1cccc(F)c1)c1ccc(C#N)cc1 (centres unmarked) [Example 10, 4-(((5-chloro-3′-fluoro(1,1′-biphenyl)-2-yl)methoxy)(1-methyl-1H-imidazol-5-yl)methyl)benzonitrile] | – | 94 |
| Cn1cncc1C(OCc1ccc(Cl)cc1-c1ccc(Cl)cc1)c1ccc(C#N)cc1 (centres unmarked) [Example 11, 4-(((4′,5-dichloro(1,1′-biphenyl)-2-yl)methoxy)(1-methyl-1H-imidazol-5-yl)methyl)benzonitrile] | – | 92 |
| Cn1cncc1C(OCc1ccc(Cl)cc1-c1cccc2ccccc12)c1ccc(C#N)cc1 (centres unmarked) [Example 12, 4-(((4-chloro-2-(1-naphthyl)benzyl)oxy)(1-methyl-1H-imidazol-5-yl)methyl)benzonitrile] | – | 92 |
| Cn1cncc1C(OCc1ccc(Cl)cc1-c1cccc(N)c1)c1ccc(C#N)cc1 (centres unmarked) [Example 13, 4-(((3′-amino-5-chloro(1,1′-biphenyl)-2-yl)methoxy)(1-methyl-1H-imidazol-5-yl)methyl)benzonitrile] | – | 84 |
| Cn1cncc1C(OCc1ccc(Cl)cc1-c1cccc(C#N)c1)c1ccc(C#N)cc1 (centres unmarked) [Example 14, 3′-chloro-6′-(((4-cyanophenyl)(1-methyl-1H-imidazol-5-yl)methoxy)methyl)(1,1′-biphenyl)-3-carbonitrile] | – | 96 |
| CC(=O)c1ccccc1-c1cc(Cl)ccc1COC(c1ccc(C#N)cc1)c1cncn1C (centres unmarked) [Example 15, 4-(((2′-acetyl-5-chloro(1,1′-biphenyl)-2-yl)methoxy)(1-methyl-1H-imidazol-5-yl)methyl)benzonitrile] | – | 82 |
| CC(=O)c1ccc(-c2cc(Cl)ccc2COC(c2ccc(C#N)cc2)c2cncn2C)cc1 (centres unmarked) [Example 16, 4-(((4′-acetyl-5-chloro(1,1′-biphenyl)-2-yl)methoxy)(1-methyl-1H-imidazol-5-yl)methyl)benzonitrile] | – | > 83 |

| Molecule | % Inhibition at 10^−7 M [%] | inhibition at 0.1 µM [%] |
| --- | --- | --- |
| Cc1ccc(-c2cc(Cl)ccc2COC(c2ccc(C#N)cc2)c2cncn2C)cc1C (centres unmarked) [Example 17, 4-(((5-chloro-3′,4′-dimethyl(1,1′-biphenyl)-2-yl)methoxy)(1-methyl-1H-imidazol-5-yl)methyl)benzonitrile] | – | > 85 |
| Cn1cncc1C(OCc1ccc(Cl)cc1-c1ccc(C(C)(C)C)cc1)c1ccc(C#N)cc1 (centres unmarked) [Example 18, 4-(((4′-tert-butyl-5-chloro(1,1′-biphenyl)-2-yl)methoxy)(1-methyl-1H-imidazol-5-yl)methyl)benzonitrile] | – | 97 |
| CCOc1cccc(-c2cc(Cl)ccc2COC(c2ccc(C#N)cc2)c2cncn2C)c1 (centres unmarked) [Example 19, 4-(((5-chloro-3′-ethoxy(1,1′-biphenyl)-2-yl)methoxy)(1-methyl-1H-imidazol-5-yl)methyl)benzonitrile] | – | > 95 |
| COc1ccc(OC)c(-c2cc(Cl)ccc2COC(c2ccc(C#N)cc2)c2cncn2C)c1 (centres unmarked) [Example 20, 4-(((5-chloro-2′,5′-dimethoxy(1,1′-biphenyl)-2-yl)methoxy)(1-methyl-1H-imidazol-5-yl)methyl)benzonitrile] | – | 94 |
| COc1ccc(-c2cc(Cl)ccc2COC(c2ccc(C#N)cc2)c2cncn2C)cc1OC (centres unmarked) [Example 21, 4-(((5-chloro-3′,4′-dimethoxy(1,1′-biphenyl)-2-yl)methoxy)(1-methyl-1H-imidazol-5-yl)methyl)benzonitrile] | – | 91 |
| CC(=O)Nc1cccc(-c2cc(Cl)ccc2COC(c2ccc(C#N)cc2)c2cncn2C)c1 (centres unmarked) [Example 22, N-(5′-chloro-2′-(((4-cyanophenyl)(1-methyl-1H-imidazol-5-yl)methoxy)methyl)(1,1′-biphenyl)-3-yl)acetamide] | – | 64 |
| Cn1cncc1C(OCc1ccc(Cl)cc1-c1ccc2c(c1)OCO2)c1ccc(C#N)cc1 (centres unmarked) [Example 23, 4-(((2-(1,3-benzodioxol-5-yl)-4-chlorobenzyl)oxy)(1-methyl-1H-imidazol-5-yl)methyl)benzonitrile] | – | > 92 |
| COc1cc(-c2cc(Cl)ccc2COC(c2ccc(C#N)cc2)c2cncn2C)cc(OC)c1OC (centres unmarked) [Example 24, 4-(((5-chloro-3′,4′,5′-trimethoxy(1,1′-biphenyl)-2-yl)methoxy)(1-methyl-1H-imidazol-5-yl)methyl)benzonitrile] | – | 94 |
| Cn1cncc1C(OCc1ccc(Cl)cc1-c1cccc(Cl)c1Cl)c1ccc(C#N)cc1 (centres unmarked) [Example 25, 4-((1-methyl-1H-imidazol-5-yl)((2′, 3′,5-trichloro(1,1′-biphenyl)-2-yl)methoxy)methyl)benzonitrile] | – | 87 |
| Cn1cncc1C(OCc1ccc(Cl)cc1-c1cc(Cl)cc(Cl)c1)c1ccc(C#N)cc1 (centres unmarked) [Example 27, 4-((1-methyl-1H-imidazol-5-yl)((3′,5,5′-trichloro(1,1′-biphenyl)-2-yl)methoxy)methyl)benzonitrile] | – | 47 |
| Cn1cncc1C(OCc1ccc(Cl)cc1-c1ccc(Cl)c(Cl)c1)c1ccc(C#N)cc1 (centres unmarked) [Example 28, 4-((1-methyl-1H-imidazol-5-yl)((3′,4′,5-trichloro(1,1′-biphenyl)-2-yl)methoxy)methyl)benzonitrile] | – | > 85 |
| Cn1cncc1C(OCc1ccc(Cl)cc1-c1ccc(C=O)s1)c1ccc(C#N)cc1 (centres unmarked) [Example 29, 4-(((4-chloro-2-(5-formyl-2-thienyl)benzyl)oxy)(1-methyl-1H-imidazol-5-yl)methyl)benzonitrile] | – | 92 |
| Cn1cncc1C(OCc1ccc(Cl)cc1-c1cccc(C=O)c1)c1ccc(C#N)cc1 (centres unmarked) [Example 30, 4-(((5-chloro-3′-formyl(1,1′-biphenyl)-2-yl)methoxy)(1-methyl-1H-imidazol-5-yl)methyl)benzonitrile] | – | 92 |
| CCOc1cccc(-c2cc(C#N)ccc2COC(c2ccc(C#N)cc2)c2cncn2C)c1 (centres unmarked) [Example 32, 6-(((4-cyanophenyl)(1-methyl-1H-imidazol-5-yl)methoxy)methyl)-3′-ethoxy(1,1′-biphenyl)-3-carbonitrile] | – | > 98 |
| Cn1cncc1C(OCc1ccc(C#N)cc1-c1ccc2c(c1)OCO2)c1ccc(C#N)cc1 (centres unmarked) [Example 33, 3-(1,3-benzodioxol-5-yl)-4-(((4-cyanophenyl)(1-methyl-1H-imidazol-5-yl)methoxy)methyl)benzonitrile] | – | > 98 |

Same assay, conditions: test compound at 10^−9 M (stated in the cell); 3H-farnesyldiphosphate 0.6 μM, H-Ras 5.0 μM, 37° C., 30 minutes

| Molecule | % Inhibition at 10^−9 M |
| --- | --- |
| Cn1cncc1[C@](O)(COc1ccc(C#N)cc1-c1ccc(OC(F)(F)F)cc1)c1ccc(C#N)cc1 (single isomer, unassigned) [Example 93] | 90 (10^−9M) % |
